{"source": "patent US6384254B1", "about": "“Quaternary ammonium salt-containing polysiloxane, making method, and fiber or fabric treating agent composition” (Shin-Etsu Chemical Co., Ltd., priority 1999, dated 2002)", "tested_on": "stephelococcus Aureus", "experiment": "percentage loss of bacteria on treated cloth after ten launderings, shaking flask method", "assay_type": "cell-based", "details": "polyester/cotton (65%/35%) cloth dipped in treating bath (2.0 wt% silicone solids; CE1 3.5 wt% solids), laundered ten times by 103 method of JIS L-0217", "description": "The emulsion was diluted to an aqueous solution having a silicone solid concentration of 2.0% by weight. A polyester/cotton (65%/35%) mixed broad-cloth was dipped in the solution for one minute, nipped through rolls at a nip rate of 100%, dried at 135° C. for one minute and heat treated at 165° C. for 2 minutes. The thus treated cloth was laundered ten times in accordance with the 103 method of JIS L-0217 whereupon a percentage loss of stephelococcus Aureus was compared by the shaking flask method. The texture of the treated cloth was examined by finger touch before and after washing.\nFor comparison purpose, using a 38% solids methanol solution of 3-(trimethoxysilyl)propyldimethyloctadecylammonium chloride, a 3.5 wt% solids aqueous solution was prepared. A similar experiment was carried out. This is Comparative Example 1."}
{"compound": "CCCCCCCCCCCCCCCCCC[N+](C)(C)CCC[Si](OC)(OC)OC.[Cl-]", "note": "[CE1, 3-(trimethoxysilyl)propyldimethyloctadecylammonium chloride]", "values": [{"measurement": "Bacteria loss after washing (%)", "value": 35, "unit": "%"}]}
